Laboratory results published in patent US6452014B1, “Telomerase inhibitors and methods of their use” (Geron Corporation, priority 2000, dated 2002).
“And” between values parts separate entries of the source, which are not always exact repeats. Equal entries are not always repeated.

Biological target: T1, partially purified telomerase from a nuclear extract of HEK293 cells (Homo sapiens, UniProt O14746)
T1 construct: partially purified telomerase from a nuclear extract of HEK293 cells; endogenous in cells; host or cells: HEK293 cells (nuclear extract, partially purified)
Assay: In vitro telomerase inhibition, membrane hybridization assay (method of U.S. Pat. No. 5,760,062)
Assay type: biochemical
Details: replicate determinations listed in one cell
Procedure: Alternatively, telomerase inhibitory activity of the compounds was measured in accordance with a known method (U.S. Pat. No. 5,760,062). That is, a dimethyl sulfoxide (DMSO) solution of each agent was mixed with partially purified telomerase from a nuclear extract of HEK293 cells and incubated in the presence of an oligodeoxynucleotide to be used as the substrate and deoxynucleotide triphosphate. The obtained reacted product (DNA having a telomere sequence) was adsorbed on a membrane, and hybridization was carried out using a labeled oligonucleotide probe having a sequence complementary to the telomere sequence. The inhibition ratio was calculated based on the ratio of the signal of label on the membrane in the presence of the agent to the signal of label in the absence of the agent (control). Also, concentration of each agent which inhibits 50% of the enzyme activity based on the control was used as IC50.

T1 sequence (O14746 whole entry): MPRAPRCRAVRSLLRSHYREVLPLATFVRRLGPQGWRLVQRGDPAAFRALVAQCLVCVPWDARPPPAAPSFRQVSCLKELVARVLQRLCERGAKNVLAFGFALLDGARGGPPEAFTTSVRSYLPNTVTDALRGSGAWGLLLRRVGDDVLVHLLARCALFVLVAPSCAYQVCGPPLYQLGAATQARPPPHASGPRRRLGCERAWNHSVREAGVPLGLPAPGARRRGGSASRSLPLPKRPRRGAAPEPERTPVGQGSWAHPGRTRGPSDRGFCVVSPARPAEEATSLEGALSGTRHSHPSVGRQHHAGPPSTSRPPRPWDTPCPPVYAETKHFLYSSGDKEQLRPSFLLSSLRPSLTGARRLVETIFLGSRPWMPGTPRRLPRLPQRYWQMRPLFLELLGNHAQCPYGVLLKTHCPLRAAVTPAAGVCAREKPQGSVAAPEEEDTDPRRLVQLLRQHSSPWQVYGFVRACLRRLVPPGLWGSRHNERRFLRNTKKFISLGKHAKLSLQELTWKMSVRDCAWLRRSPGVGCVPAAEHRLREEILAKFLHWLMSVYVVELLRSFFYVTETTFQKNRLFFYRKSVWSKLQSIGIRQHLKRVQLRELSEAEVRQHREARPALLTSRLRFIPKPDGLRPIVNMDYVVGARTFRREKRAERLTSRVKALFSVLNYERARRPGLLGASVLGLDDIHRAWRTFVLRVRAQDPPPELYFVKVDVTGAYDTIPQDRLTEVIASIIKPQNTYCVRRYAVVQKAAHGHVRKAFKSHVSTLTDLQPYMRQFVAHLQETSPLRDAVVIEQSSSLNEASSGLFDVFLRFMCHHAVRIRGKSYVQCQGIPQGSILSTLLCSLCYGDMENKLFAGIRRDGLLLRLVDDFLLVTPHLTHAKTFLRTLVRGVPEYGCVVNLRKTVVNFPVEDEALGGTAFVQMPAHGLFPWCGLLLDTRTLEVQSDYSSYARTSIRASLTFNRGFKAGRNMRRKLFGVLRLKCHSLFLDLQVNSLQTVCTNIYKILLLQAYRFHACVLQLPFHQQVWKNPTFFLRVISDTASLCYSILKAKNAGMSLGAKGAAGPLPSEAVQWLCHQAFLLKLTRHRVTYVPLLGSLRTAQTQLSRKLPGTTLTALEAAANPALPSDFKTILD

SMILES | IC50
O=C1NC(=O)/C(=C/c2ccc(-c3nc4cc(Cl)c(Cl)cc4[nH]3)cc2)S1 [Example 1, 5,6-Dichloro-2-[4-[(2,4-dioxothiazolidin-5-ylidene)methyl]phenyl]benzimidazole] | 1.86 µM and 1.1 µM and 1.22 µM and 0.85 µM and 1.14 µM
O=C1NC(=O)/C(=C/c2ccc(-c3nc4ccccc4[nH]3)cc2)S1 [Example 2, 2-[4-[(2,4-Dioxothiazolidin-5-ylidene)methyl]phenyl]benzimidazole] | 1.05 µM and 1.52 µM
Cc1cc2nc(-c3ccc(/C=C4\SC(=O)NC4=O)cc3)[nH]c2cc1C [Example 3, 5,6-Dimethyl-2-[4-[(2,4-dioxothiazolidin-5-ylidene)methyl]phenyl]benzimidazole] | 5.44 µM and 6.2 µM
O=C1NC(=O)/C(=C/c2ccc(-c3nc4cc([N+](=O)[O-])ccc4[nH]3)cc2)S1 [Example 4, 2-[4-[(2,4-Dioxothiazolidin-5-ylidene)methyl]phenyl]-5-nitrobenzimidazole] | 4.3 µM and 3.69 µM
O=C1NC(=O)/C(=C/c2ccc(-c3nc4c(C(F)(F)F)cc(Cl)cc4[nH]3)cc2)S1 [Example 5, 6-Chloro-2-[4-[(2,4-dioxothiazolidin-5-ylidene)methyl]phenyl]-4-(trifluoromethyl)benzimidazole] | 4.98 µM and 2.95 µM
O=C1NC(=O)/C(=C/c2ccc(-c3nc4cc(C(=O)c5ccccc5)ccc4[nH]3)cc2)S1 [Example 6, 5-Benzoyl-2-[4-[(2,4-dioxothiazolidin-5-ylidene)methyl]phenyl]benzimidazole] | 3.04 µM and 3.35 µM
O=C1NC(=O)/C(=C/c2ccc(-c3nc4ccccc4n3Cc3ccc(Cl)c(Cl)c3)cc2)S1 [Example 14, 1-(3,4-Dichlorobenzyl)-2-[4-[(2,4-dioxothiazolidin-5ylidene)methyl]-phenyl]benzimidazole] | 1.61 µM and 1.92 µM
Cc1cc2nc(-c3ccc(/C=C4\SC(=O)NC4=O)cc3)n(Cc3ccc(Cl)c(Cl)c3)c2cc1C [Example 15, 1-(3,4-Dichlorobenzyl)-5,6-dimethyl-2-[4-[(2,4-dioxothiazolidin-5-ylidene)methyl]phenyl]benzimidazole] | 3.01 µM and 2.43 µM
CCOC(=O)Cn1c(-c2ccc(/C=C3\SC(=O)NC3=O)cc2)nc2cc(Cl)c(Cl)cc21 [Example 20, Ethyl [5,6-Dichloro-2-[4-[(2,4-dioxothiazolidin-5-ylidene)methyl]phenyl]-benzimidazol-1-yl]acetate] | 2.28 µM and 3.26 µM

Other lines, results leading:

IC50 | SMILES
19.2 µM and 15.9 µM | CN(C)CCn1c(-c2ccc(/C=C3\SC(=O)NC3=O)cc2)nc2cc(Cl)c(Cl)cc21 [Example 21, 5,6-Dichloro-1-(2-dimethyaminoethyl)-2-[4-[(2,4-dioxothiazolidin-5-ylidene)methyl]phenyl]benzimidazole]
14.5 µM and 15 µM | O=C1NC(=O)C(Cc2ccc(-c3nc4cc(Cl)c(Cl)cc4[nH]3)cc2)S1 (stereo not shown) [Example 28, 2-[4-[(2,4-Dioxothiazolidin-5-yl)methyl]phenyl]-5,6-dichlorobenzimidazole]
1.89 µM and 2.26 µM | O=C1NC(=O)/C(=C/c2cc(Br)c(-c3nc4cc(Cl)c(Cl)cc4[nH]3)s2)S1 [Example 29, 5,6-Dichloro-2-[3-bromo-5-[(2,4-dioxothiazolidin-5-ylidene)methyl]thiophen-2-yl]benzimidazole]
5.19 µM and 2.76 µM | O=C1NC(=O)/C(=C/c2ccc(-c3nc4cc(Cl)c(Cl)cc4[nH]3)o2)S1 [Example 30]
1.96 µM and 1.91 µM | O=C1NC(=O)/C(=C/c2ccc(-c3nc4cc(Cl)c(Cl)cc4[nH]3)s2)S1 [Example 32, 5,6-Dichloro-2-[2-[(2,4-dioxothiazolidin-5-ylidene)methyl]thiophen-5-5-yl]benzimidazole]
3.18 µM and 2.47 µM | Cn1c(/C=C2\SC(=O)NC2=O)ccc1-c1nc2cc(Cl)c(Cl)cc2[nH]1 [Example 33, 2-[2-[(2,4-Dioxothiazolidin-5-ylidene)methyl]-1-methylpyrrol-5-yl]-5,6-dichlorobenzimidazole]
0.44 µM and 0.92 µM and 1.01 µM | O=C1NC(=O)/C(=C/c2ccc(-c3nc4cc(Cl)c(Cl)cc4[nH]3)c3ccccc23)S1 [Example 39, 5,6-Dichloro-2-[4-[(2,4-dioxothiazolidin-5-ylidene)methyl]naphth-1-yl]benzimidazole]
0.29 µM and 0.55 µM and 0.51 µM | O=C1NC(=O)/C(=C/c2ccc3cc(-c4nc5cc(Cl)c(Cl)cc5[nH]4)ccc3c2)S1 [Example 40, 5,6-Dichloro-2-[6-[(2,4-dioxothiazolidin-5-ylidene)methyl]naphth-2-yl]benzimidazole]
0.61 µM | O=C1NC(=O)/C(=C/c2ccc3[nH]c(-c4nc5cc(Cl)c(Cl)cc5[nH]4)cc3c2)S1 [Example 45, 5,6-Dichloro-2-[5-[(2,4-dioxothiazolidin-5-ylidene)methyl]indol-2-yl]benzimidazole]
5.4 µM | O=C1NC(=O)/C(=C/c2cc3cc(-c4nc5cc(Cl)c(Cl)cc5[nH]4)ccc3[nH]2)S1 [Example 46, 5,6-Dichloro-2-[2-[(2,4-dioxothiazolidin-5-ylidene)methyl]indol-5-yl]benzimidazole]
